# Data published in patent publication US5908862A, “Water-miscible esters of mono--and diglycerides having antibacterial activity and their use in inhibiting infection” (priority 1996, dated 1999).
# Tested on: human respiratory syncytial virus (RSV) in LLC-MK2 cells
# Assay: RSV inhibition assay in LLC-MK2 cells (immunoperoxidase), PBS
# Type: cell-based
# Details: Carrageenan's IC50; Carrageenan alone
# Description: Additional studies were performed to determine the synergistic anti-viral effects of diacetyltartaric acid esters of mono- and diglycerides, lipophilic monoglycerides (MG) and carrageenan. These studies were carried out using […] and PBS as the diluent. The RSV inhibition assay semi-quantitatively determines the ability of a test material (antibody or other bioactive compound) to inhibit the infection of monkey kidney cells (LLC-MK2) by human respiratory syncytial virus (RSV). Infected cells are identified using an immunoperoxidase method and counted. The method is performed in a microtiter format and is described briefly below:
# LLC-MK2 rhesus monkey kidney cells were obtained from the American Type Culture Collection and were cultured in Eagles […] essential medium (EMEM) supplemented with 10% fetal bovine serum. […] Plates were then rinsed as above with PBS/CEA, and the number of stained RSV-infected cells (IC) per well determined using an inverted microscope. The number of ICs' in triplicate wells was compared with the number of ICs' of virus control wells (mean of 9)and the percent inhibition (PI) calculated; [PI=1.0-[Mean ICs' per well of test sample/Mean ICs' per well of virus control]. […]
substance,measurement,value
Carrageenan,Enhancement Factor,1.0
